Results as given in US20110178104A1, “Anti-Heparin Compounds” (POLYMEDIX INC., priority 2010, published 2011).
Values after ≈ are worked out from the molar mass of the structure shown.

Assays:
[1] = tested on: enoxaparin (ENOX); assay: FXa chromogenic assay (absence of plasma), enoxaparin; details: enoxaparin 0.1 μg/mL, absence of plasma
[2] = tested on: fondaparinux (FONDAPX); assay: FXa chromogenic assay (absence of plasma), fondaparinux; details: fondaparinux 0.02 μg/mL, absence of plasma
Description: Human antithrombin was mixed with an anticoagulant agent (a LMWH or fondaparinux); final concentrations were 0.22 μg/mL for the LMWHs and 0.07 μg/mL for fondaparinux. […] Absorbance was read every 30 seconds over a 4 minute period in a SpectraMax 250 instrument (Molecular Devices, Inc.). EC50 values are determined by a curve-fit program (SoftMax Pro) using the following formula:
FXa Chromogenic Assay (absence of plasma). Human antithrombin was mixed with an anticoagulant (a LMWH or fondaparinux); final concentrations were 0.1 μg/mL for the LMWHs and 0.02 μg/mL for fondaparinux. […] Absorbance was read every 30 seconds over a 4 minute period in a SpectraMax 250 instrument (Molecular Devices Inc.™) The slope of absorbance vs time was calculated for each compound concentration. EC50 values were determined using a curve fit program (GraphPad Prism 5).

[3] = tested on: unfractionated heparin (UFH); assay: aPTT clotting assay, UFH 0.2 U/mL in plasma (Example 7); format: biochemical; details: UFH 0.2 U/mL in plasma
Description: aPTT clotting Assay. Unfractionated heparin was mixed with plasma at a final concentration of 0.2 U/mL. […] The ACL Elite Hemostasis analyzer (Beckman Coulter™) was used to add aPTT reagent (HemosIL SynthASil) to supplemented plasma. Clotting was initiated by addition of CaCl2 and time to clot was recorded.

[4] = tested on: tinzaparin; assay: FXa amidolytic assay (Example 10), tinzaparin; details: read-out: Tinzap FXa EC50; tinzaparin 0.1 ug/ml; human antithrombin, bovine Factor Xa
Description: (§1) Two μl of test agent are added (range between 0.01 and 23 ug/ml) and incubated for 5 minutes at 23° C. Bovine Factor Xa was added to a final concentration of 0.636 nkat/mL and incubated for a further 10 minutes at 23° C.

[5] = tested on: isolated human erythrocytes; assay: in vitro; format: cell-based; details: human RBC, 1 hour at 37° C.; for EC50: Homo sapiens, Erythrocyte, 1 h, read-out: Hemolysis EC50
Description: Hemolysis assay: Cytotoxicity was also evaluated in a hemolysis assay using isolated human erythrocytes. Pooled whole human blood was centrifuged to separate the red blood cells (RBC). The isolated RBCs were rinsed and diluted in Tris-buffered saline (TBS buffer, pH 7.4) to obtain a 0.22% RBC stock suspension. Serial two-fold dilutions of test agent were assayed over a concentration range of 1000 to 0.48 μg/ml with shaking for 1 hour at 37° C. At the conclusion of the incubation time, samples were centrifuged and 30 μl of the supernatant was added to 100 μl H2O. OD405 measurements were read for hemoglobin concentration. The bee venom peptide melittin was used as a positive control. EC50 values were determined using a four parameter logistic equation: Y=Bottom+(Top-Bottom)/(1+10̂((LogEC50-X)*HillSlope)).

[6] = tested on: fondaparinux; assay: FXa amidolytic assay (Example 10), fondaparinux; details: read-out: Fondap FXa EC50; fondaparinux 0.02 μg/mL; human antithrombin, bovine Factor Xa
Description: as §1

[7] = tested on: enoxaparin; assay: FXa amidolytic assay (Example 10), enoxaparin; details: read-out: Enox FXa EC50; enoxaparin 0.1 ug/ml; human antithrombin, bovine Factor Xa
Description: as §1

[8] = tested on: Unfractionated heparin; assay: aPTT clotting assay, UFH 0.4 U/mL in plasma (Example 10); format: biochemical; details: unfractionated heparin 0.4 U/mL in plasma; aPTT clotting
Description: aPTT clotting Assay: Unfractionated heparin was mixed with plasma at a final concentration of 0.4 U/mL (or concentration which increases aPTT time to between 120 and 300 seconds). […] The ACL Elite Hemostasis analyzer (Beckman Coulter™) was used to add aPTT reagent (HemosIL SynthASil) to supplemented plasma. Clotting was initiated by addition of CaCl2 and time to clot was recorded.

COc1ccc(NC(=O)[C@@H](CCCNC(=N)N)NC(=O)c2cc(NC(=O)[C@@H](CCCNC(=N)N)NC(=O)c3cc(NC(=O)[C@@H](CCCNC(=N)N)NC(=O)c4cc(NC(=O)[C@H](N)CCCNC(=N)N)ccc4OC)ccc3OC)ccc2OC)cc1C(N)=O [Compound 135]
ENOX (FXa) EC50 [1]: 0.1581 µg/mL
FONDAPX (FXa) EC50 [2]: 0.7596 µg/mL
UFH (aPTT) EC50 [3]: 2.79 µg/mL

COc1ccc(NC(=O)[C@@H](CCCNC(=N)N)NC(=O)c2cc(NC(=O)[C@@H](CCCNC(=N)N)NC(=O)c3cc(NC(=O)[C@@H](CCCNC(=N)N)NC(=O)c4cc(NC(=O)[C@H](N)CCCNC(=N)N)ccc4OC)ccc3OC)ccc2OC)cc1C(N)=O [Compound 136]
ENOX (FXa) EC50 [1]: 0.194 µg/mL
FONDAPX (FXa) EC50 [2]: 0.8018 µg/mL
UFH (aPTT) EC50 [3]: 2.91 µg/mL

COc1ccc(NC(=O)[C@H](CCCCN)NC(=O)c2cc(NC(=O)[C@H](CCCCN)NC(=O)c3cc(NC(=O)[C@H](CCCCN)NC(=O)c4cc(NC(=O)[C@@H](N)CCCNC(N)=O)ccc4OC)ccc3OC)ccc2OC)cc1C(N)=O [Compound 137]
ENOX (FXa) EC50 [1]: 0.3761 µg/mL
FONDAPX (FXa) EC50 [2]: 4.025 µg/mL
UFH (aPTT) EC50 [3]: 2.00 µg/mL

COc1ccc(NC(=O)[C@H](CCCCN)NC(=O)c2cc(NC(=O)[C@H](CCCCN)NC(=O)c3cc(NC(=O)[C@H](CCCNC(N)=O)NC(=O)c4cc(NC(=O)[C@@H](N)CCCCN)ccc4OC)ccc3OC)ccc2OC)cc1C(N)=O [Compound 138]
ENOX (FXa) EC50 [1]: 0.3298 µg/mL
FONDAPX (FXa) EC50 [2]: 2.332 µg/mL
UFH (aPTT) EC50 [3]: 2.15 µg/mL

COc1ccc(NC(=O)[C@H](CCCCN)NC(=O)c2cc(NC(=O)[C@H](CCCNC(N)=O)NC(=O)c3cc(NC(=O)[C@H](CCCCN)NC(=O)c4cc(NC(=O)[C@@H](N)CCCCN)ccc4OC)ccc3OC)ccc2OC)cc1C(N)=O [Compound 139]
ENOX (FXa) EC50 [1]: 0.3196 µg/mL
FONDAPX (FXa) EC50 [2]: 2.485 µg/mL
UFH (aPTT) EC50 [3]: 2.46 µg/mL

COc1ccc(NC(=O)[C@H](CCCNC(N)=O)NC(=O)c2cc(NC(=O)[C@H](CCCCN)NC(=O)c3cc(NC(=O)[C@H](CCCCN)NC(=O)c4cc(NC(=O)[C@@H](N)CCCCN)ccc4OC)ccc3OC)ccc2OC)cc1C(N)=O [Compound 140]
ENOX (FXa) EC50 [1]: 0.4309 µg/mL
FONDAPX (FXa) EC50 [2]: 4.636 µg/mL
UFH (aPTT) EC50 [3]: 2.52 µg/mL

COc1ccc(NC(=O)[C@H](CCCCN)NC(=O)c2cc(NC(=O)[C@@H](N)CCCCN)ccc2OC)cc1C(=O)N[C@@H](CCCCN)C(=O)Nc1ccc(SC)c(C(=O)N[C@@H](CCCCN)C(=O)Nc2ccc(SC)c(C(N)=O)c2)c1 [Compound 141]
ENOX (FXa) EC50 [1]: inactive
FONDAPX (FXa) EC50 [2]: inactive
UFH (aPTT) EC50 [3]: inactive

COc1ccc(NC(=O)[C@H](CCCCN)NC(=O)c2cc(NC(=O)[C@H](CCCCN)NC(=O)c3cc(NC(=O)[C@H](CCCCN)NC(=O)c4cc(NC(=O)[C@@H](N)CCCCN)ccc4OC)ccc3OC)ccc2OC)cc1C(=O)N[C@@H](CCCNC(N)=O)C(=O)O [Compound 142]
ENOX (FXa) EC50 [1]: 0.592 µg/mL
FONDAPX (FXa) EC50 [2]: 7.045 µg/mL
UFH (aPTT) EC50 [3]: 2.88 µg/mL

COc1ccc(NC(=O)[C@H](CCCCN)NC(=O)c2cc(NC(=O)[C@H](CCCCN)NC(=O)c3cc(NC(=O)[C@H](CCCCN)NC(=O)c4cc(NC(=O)[C@@H](N)CCCCN)ccc4OC)ccc3OC)ccc2OC)cc1C(=O)NCCCCCC(=O)O [Compound 143]
ENOX (FXa) EC50 [1]: 1.011 µg/mL
FONDAPX (FXa) EC50 [2]: 12.700 µg/mL
UFH (aPTT) EC50 [3]: 2.96 µg/mL

COc1ccc(NC(=O)[C@H](CCCCN)NC(=O)c2cc(NC(=O)[C@H](CCCCN)NC(=O)c3cc(NC(=O)[C@H](CCCCN)NC(=O)c4cc(NC(=O)[C@@H](N)CCCCN)ccc4OC)ccc3OC)ccc2OC)cc1C(=O)Nc1cccc(C(=O)O)c1 [Compound 144]
ENOX (FXa) EC50 [1]: 0.244 µg/mL
FONDAPX (FXa) EC50 [2]: 1.051 µg/mL
UFH (aPTT) EC50 [3]: 3.13 µg/mL

COc1ccc(NC(=O)[C@H](CCCCN)NC(=O)c2cc(NC(=O)[C@H](CCCCN)NC(=O)c3cc(NC(=O)[C@H](CCCCN)NC(=O)c4cc(NC(=O)[C@@H](N)CCCCN)ccc4OC)ccc3OC)ccc2OC)cc1C(=O)N[C@@H](CCC(=O)O)C(=O)O [Compound 145]
ENOX (FXa) EC50 [1]: 1.141 µg/mL
FONDAPX (FXa) EC50 [2]: 9.463 µg/mL
UFH (aPTT) EC50 [3]: 4.26 µg/mL

COc1ccc(NC(=O)[C@H](CCCCN)NC(=O)c2cc(NC(=O)[C@@H](N)CCCCN)ccc2OC)cc1C(=O)N[C@@H](CCCCN)C(=O)Nc1ccc(OC)c(C(=O)N[C@@H](CCCCN)C(=O)Nc2ccc(OC)c(C(=O)N[C@H](C)C(=O)O)c2)c1 [Compound 146]
ENOX (FXa) EC50 [1]: 1.027 µg/mL
FONDAPX (FXa) EC50 [2]: 19.030 µg/mL
UFH (aPTT) EC50 [3]: 2.74 µg/mL

COc1ccc(NC(=O)[C@H](CCCCN)NC(=O)c2cc(NC(=O)[C@H](CCCCN)NC(=O)c3cc(NC(=O)[C@H](CCCCN)NC(=O)c4cc(NC(=O)[C@@H](N)CCCCN)ccc4OC)ccc3OC)ccc2OC)cc1C(=O)N[C@@H](Cc1ccc(O)cc1)C(=O)O [Compound 265]
EC50 [4]: 120 nM
Hemolysis EC50 [5]: no significant decrease
EC50 [6]: 385 nM
EC50 [7]: 138 nM
EC50 [8]: 1450 nM

COc1ccc(NC(=O)[C@@H](CCCNC(=N)N)NC(=O)c2cc(NC(=O)[C@@H](CCCNC(=N)N)NC(=O)c3cc(NC(=O)[C@@H](CCCNC(=N)N)NC(=O)c4cc(NC(=O)[C@H](N)CCCNC(=N)N)ccc4OC)ccc3OC)ccc2OC)cc1C(=O)NCC(=O)O [Compound 278]
EC50 [4]: 132 nM
Hemolysis EC50 [5]: no significant decrease
EC50 [6]: 408 nM
EC50 [7]: 150 nM
EC50 [8]: 1990 nM

COc1ccc(NC(=O)[C@H](CCCNC(=N)N)NC(=O)c2cc(NC(=O)[C@H](CCCNC(=N)N)NC(=O)c3cc(NC(=O)[C@H](CCCNC(=N)N)NC(=O)c4cc(NC(=O)[C@@H](N)CCCNC(=N)N)ccc4OC)ccc3OCC(=O)O)ccc2OC)cc1C(N)=O [Compound 288]
EC50 [4]: 102 nM
Hemolysis EC50 [5]: no significant decrease
EC50 [6]: 390 nM
EC50 [7]: 119 nM
EC50 [8]: 2020 nM

COc1ccc(NC(=O)[C@H](CCCNC(=N)N)NC(=O)c2cc(NC(=O)[C@H](CCCNC(=N)N)NC(=O)c3cc(NC(=O)[C@H](CCCNC(=N)N)NC(=O)c4cc(NC(C)=O)ccc4OC)ccc3OC)ccc2OC)cc1C(N)=O [Compound 298]
EC50 [4]: 167 nM
Hemolysis EC50 [5]: no significant decrease
EC50 [6]: 334 nM
EC50 [7]: 201 nM
EC50 [8]: 2060 nM

COc1ccc(NC(=O)[C@@H](CCCNC(=N)N)NC(=O)c2cc(NC(=O)[C@@H](CCCNC(=N)N)NC(=O)c3cc(NC(=O)[C@@H](CCCNC(=N)N)NC(=O)c4cc(NC(=O)[C@H](N)CCCNC(=N)N)ccc4OC)ccc3OC)ccc2OC)cc1C(=O)N[C@H](Cc1c[nH]c2ccccc12)C(=O)O [Compound 303]
EC50 [4]: 189 nM
EC50 [5]: ~500 µg/mL (≈ 351 µM)
EC50 [6]: 146 nM
EC50 [7]: 192 nM
EC50 [8]: > 10000 nM

COc1ccc(NC(=O)[C@@H](CCCNC(=N)N)NC(=O)c2cc(NC(=O)[C@@H](CCCNC(=N)N)NC(=O)c3cc(NC(=O)[C@@H](CCCNC(=N)N)NC(=O)c4cc(NC(=O)[C@H](N)CCCNC(=N)N)ccc4OC)ccc3OCC(=O)O)ccc2OC)cc1C(=O)N[C@H](Cc1c[nH]c2ccccc12)C(N)=O [Compound 307]
EC50 [4]: 118 nM
EC50 [5]: ~50 µg/mL (≈ 34 µM)
EC50 [6]: 118 nM
EC50 [7]: 120 nM
EC50 [8]: 3780 nM
